Source: paper PMC11460631, “Inhibition of transient receptor potential vanilloid 3 channels by antimalarial hydroxychloroquine alleviates TRPV3-dependent dermatitis” (The Journal of Biological Chemistry, 2024)
Read-outs that look alike come from different tables or passages of the source.

Target: T1, TRPV3 (Homo sapiens, UniProt Q8NET8)
T1 construct: YFP or GFP; expressed in transfected cells; host or cells: HEK293T
T1 sequence (Q8NET8 1-790): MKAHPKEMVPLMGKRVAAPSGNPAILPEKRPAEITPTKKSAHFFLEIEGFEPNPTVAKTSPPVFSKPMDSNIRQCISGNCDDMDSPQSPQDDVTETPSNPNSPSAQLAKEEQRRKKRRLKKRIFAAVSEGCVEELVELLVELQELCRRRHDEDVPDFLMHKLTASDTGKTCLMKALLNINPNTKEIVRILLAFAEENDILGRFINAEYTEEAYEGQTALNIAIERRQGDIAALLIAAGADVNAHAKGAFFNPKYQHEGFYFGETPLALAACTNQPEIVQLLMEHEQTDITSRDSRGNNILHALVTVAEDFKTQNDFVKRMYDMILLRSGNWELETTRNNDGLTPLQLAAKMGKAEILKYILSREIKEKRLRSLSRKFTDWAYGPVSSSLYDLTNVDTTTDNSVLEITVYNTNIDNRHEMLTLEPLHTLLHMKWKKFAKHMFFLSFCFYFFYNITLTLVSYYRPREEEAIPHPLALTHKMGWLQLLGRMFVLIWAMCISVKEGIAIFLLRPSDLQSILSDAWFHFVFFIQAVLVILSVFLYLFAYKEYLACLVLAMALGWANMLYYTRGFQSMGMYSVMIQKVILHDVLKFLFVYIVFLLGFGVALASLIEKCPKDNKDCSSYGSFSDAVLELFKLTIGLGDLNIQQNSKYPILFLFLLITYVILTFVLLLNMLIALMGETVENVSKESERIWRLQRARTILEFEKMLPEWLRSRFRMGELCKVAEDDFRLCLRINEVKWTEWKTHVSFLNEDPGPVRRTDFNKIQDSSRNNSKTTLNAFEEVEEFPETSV
Test: Whole-cell patch-clamp recordings of TRPV3 currents in transfected HEK293T cells
Assay type: cell-based
Settings: for IC50: ± 80 mV
Procedure: HEK293T cells are cultured using Dulbecco's modified Eagle's medium containing 10% fetal bovine serum and 1% penicillin-streptomycin in a cell incubator with 5% CO2 at 37 °C. Plasmids of murine TRPV1, TRPV4, TRPM8, and human TRPV3, TRPA1 are labeled with YFP or GFP as indicators for subsequent electrophysiological recordings. Complementary DNA constructs of ion channels were transiently transfected with Lipofectamine 3000 (Invitrogen). And 12 to 18 h after transient transfection, electrophysiological recordings were performed.
Patch-clamp recordings were carried out with a HEKA EPC10 amplifier controlled by PatchMaster software (HEKA; https://www.heka.com/products/products_main.html#soft_pm) ([36]). Patch pipettes were prepared from borosilicate glass and fire-polished to the resistance of 3 to 8 MΩ by P-97 puller for whole-cell recordings. For single-channel recordings, patch pipettes were fire-polished to a higher resistance of 6 to 10 MΩ. Both bath solution and pipette solution contained 130 mM NaCl, 10 mM glucose, 0.2 mM EDTA, and 3 mM Hepes and were adjusted to pH 7.2 to 7.4 with NaOH. Whole-cell recordings and single-channel recordings were performed at ± 80 mV. The current was sampled at 10 kHz and filtered at 2.9 kHz. All recordings were performed at room temperature (25 °C). A gravity-driven system (RSC-200, Bio-Logic) with freely rotated perfusion tubes was used for the perfusion of ligands. Bath and ligand solutions were delivered through separate tubes to minimize the mixing of solutions. Patch pipette holding cells were placed in front of the perfusion tube outlet for perfusion.
All data from whole-cell recordings were analyzed in Igor Pro (WaveMetrics). IC50 values were determined by fitting the Hill equation to concentration-response relationships. Data are shown as mean ± SEM. Statistical significance between two groups was conducted with an unpaired two-tailed t test, and statistical significance among multiple groups was conducted with one-way ANOVA using Dunnett’s multiple comparisons test or Tukey's post hoc test. Differences were regarded as statistically significant with ∗, p < 0.05; ∗∗, p < 0.01; ∗∗∗, p < 0.001; ∗∗∗∗, and p < 0.0001; N.S., no significance.

## CCN(CCO)CCCC(C)Nc1ccnc2cc(Cl)ccc12 (stereo not drawn) [HCQ, hydroxychloroquine]
HEK293T cells expressing TRPV3, whole-cell, 1 mM 2-APB, read-out: IC50, inhibition of TRPV3 currents induced by 1 mM 2-APB
  IC50: 51.7 ± 4.78 µM
HEK-293T, 100 μM HCQ, 1 mM 2-APB, read-out: inhibition of WT TRPV3 channels
  inhibition at 100 µM: 75.6%
whole-cell, 1 mM carvacrol, read-out: IC50, inhibition of TRPV3 current induced by carvacrol
  IC50: 1.07 ± 0.38 µM
